From paper PMC5473904, “Epigenetic and antitumor effects of platinum(IV)-octanoato conjugates” (Scientific Reports, 2017)

Experiments:
[1] = test system: A2780 human ovarian carcinoma cells; assay: MTT cytotoxicity, 72 h; format: cell-based; details: for IC50: MTT, 72 h, platinum complexes
[2] = test system: A2780cisR human ovarian carcinoma cells; assay: MTT cytotoxicity, 72 h; format: cell-based; details: for RF, resistance factor: IC50 (resistant, A2780cisR)/IC50 (sensitive, A2780); for IC50: MTT, 72 h, platinum complexes
Description: (§1) Cytotoxic activity of the compounds tested in the present work was screened on the panel of malignant and nonmalignant cell lines using the colorimetric MTT assay and 72 h of drug incubation period.
(§2) Cell death was evaluated using a system based on the tetrazolium compound MTT [3-(4,5-dimethyl-2-thiazolyl)-2,5-diphenyl-2H-tetrazolium bromide]. The cells were seeded in 96-well tissue culture plates at a density of 10^4 A2780cisR, LNCaP, HSF cells/well, 3 × 10^3 CHO-K1 or 4 × 10^3 MCF7, HCT-116 and MRC5 pd30 cells/well in 100 μL of medium. After overnight incubation (16 h), the cells were treated with the compounds in a final volume of 200 μL/well. After additional 72 h, 10 μL of a freshly diluted MTT solution (2.5 mg mL^−1) was added to each well, and the plate was incubated at 37 °C in a humidified 5% CO2 atmosphere for 4 h. At the end of the incubation period, the medium was removed, and the formazan product was dissolved in 100 μL of DMSO. The cell viability was evaluated by measurement of the absorbance at 570 nm, using an Absorbance Reader SUNRISE TECAN SCHOELLER. IC50 values were calculated from curves constructed by plotting cell survival (%) versus drug concentration (μM). All experiments were made in triplicate. The reading values were converted to the percentage of control (% cell survival). Cytotoxic effects were expressed as IC50.

[3] = test system: CHO-K1 Chinese hamster ovary cells; assay: MTT cytotoxicity, 72 h; format: cell-based; details: platinum complexes
Description: as §1, §2

[4] = test system: HCT-116 human colorectal carcinoma cells; assay: MTT cytotoxicity, 72 h; format: cell-based; details: for IC50: MTT, 72 h, platinum complexes and decitabine
Description: as §1, §2

[5] = test system: MCF-7 human breast cancer cells; assay: MTT cytotoxicity, 72 h; format: cell-based; details: platinum complexes
Description: as §1, §2

PNT1a = assay: MTT cytotoxicity, 72 h; format: cell-based; details: platinum complexes
DNA from A2780 cells = assay: Platinum content on DNA isolated from treated cells (ICP-MS); format: cell-based, human; details: for Platinum content on DNA / Platinum on DNA, % from the total intracellular Pt amount: A2780, 24 h, 0.35 µM; for Platinum on DNA, % from the total intracellular Pt amount: rough estimate from Tables 2 and 3
Description: (§3) As for antitumor cisplatin and its direct derivatives, DNA is believed to be the target also for Pt(IV) prodrugs examined in the present work.
(§4) The cells were seeded in 150 cm^2 culture flasks at a density 1 × 10^7 cells/flask (67 000 cells/cm^2). After 48-h incubation, the cells were treated with the compounds (0.35 μM) for 24 h. The attached cells were washed twice with PBS (4 °C). As mentioned in the preceding paragraph, 75% of cells were used for analysis of platinum bound to DNA, remaining 25% were used for estimations of cellular accumulation of platinum. Cells were then lysed in DNAzol (DNAzol® genomic DNA isolation reagent, MRC) supplemented with RNase A (100 μg mL^−1). The genomic DNA was precipitated from the lysate with ethanol, dried and resuspended in water. The DNA content in each sample was determined by UV spectrophotometry. The DNA samples were digested in the presence of hydrochloric acid (11 M) using high-pressure microwave mineralization system (MARS5, CEM). The platinum content was determined by ICP-MS. Experiments were performed in triplicate and the values are the means ± SD.

DNA from HCT-116 cells = assay: as above; format: cell-based, human; details: for Platinum content on DNA / Platinum on DNA, % from the total intracellular Pt amount: HCT-116, 24 h, 0.35 µM; for Platinum on DNA, % from the total intracellular Pt amount: rough estimate from Tables 2 and 3
Description: as §3, §4

[6] = test system: DNMT enzymes in HCT-116 cells; assay: DNMT activity in nuclear extracts of treated cells; format: cell-based, human; details: 24 h
Description: In these experiments, the total activity of DNMT enzymes was determined in nuclear extracts prepared from HCT-116 cells which were treated with the platinum compounds, free OA or decitabine for 24 h (Fig. 4B).
Human colon carcinoma cells (HCT-116) were seeded in 100 mm culture dishes at the density 1.5 × 10^6 cells/dish. Cells were harvested after 24 h of incubation with the compounds tested in the present work (1 µM). Nuclear extracts from the pellets were separated using EpiQuik Nuclear extraction kit I (Epigentek, NY) according to manufacturer’s instructions. Quantification of nuclear proteins was analyzed with the standard Bradford assay. The activity of DNMT enzymes was analyzed using the EpiQuik DNMT activity/inhibition assay Ultra kit (Epigentek, NY), according to the manufacturer´s protocol. Briefly, 10 µg of total nuclear protein was analyzed for its DNMT activity. The reaction time with a universal DNMT substrate stably coated onto microplate wells was 120 min at 37 °C. The final signal at the end of the ELISA reaction was detected at 450 nm (reference 620 nm). DNMT activity was normalized to controls and expressed in the percent or absolute values as OD h^−1 mg^−1, calculated as described in the manufacturer’s manual.

HCT-116 cells = assay: Cellular platinum accumulation/distribution by ICP-MS; format: cell-based, human; details: HCT-116, 24 h, 0.35 µM

| Compound | IC50 [1] [µM] | RF, resistance factor [2] | IC50 [2] [µM] | IC50 [3] [µM] | IC50 [4] [µM] | IC50 [5] [µM] | IC50 (PNT1a) [µM] | Platinum content on DNA (DNA from A2780 cells) [pg Pt/µg DNA] | Platinum on DNA, % from the total intracellular Pt amount (DNA from A2780 cells) [%] | Platinum content on DNA (DNA from HCT-116 cells) [pg Pt/µg DNA] | Platinum on DNA, % from the total intracellular Pt amount (DNA from HCT-116 cells) [%] | Activity of DNMT enzymes ([6]; HCT-116, 1.0 µM) | Platinum in cytosol (HCT-116 cells) [pg Pt/µg protein] | Platinum in nucleus (HCT-116 cells) [pg Pt/µg protein] | other results |
| --- | --- | --- | --- | --- | --- | --- | --- | --- | --- | --- | --- | --- | --- | --- | --- |
| CC(=O)[O][Pt]([NH2])([NH2])([Cl])([Cl])[O]C(C)=O [Pt(IV)diAc, cis, cis, trans-[Pt(IV)(NH3)2Cl2(Ac)2]] | 5.3 ± 1 | 4.2 | 22 ± 3.1 | 14.5 ± 0.7 | 35.3 ± 1.4 | 51 ± 4 | 2.48 ± 0.1 | 1.1 ± 0.4 | 1.9 | 1.3 ± 0.1 | 2.0 | no significant effect | 2.1 ± 0.3 | 4.6 ± 0.5 |  |
| N.N.[Cl][Pt][Cl] [cisplatin, reference compound] | 2.8 ± 0.1 | 4.9 | 13.8 ± 0.1 | 19.9 ± 1 | 5.9 ± 0.9 | 17.4 ± 1.9 | 2.5 ± 0.32 | 1.5 ± 0.6 | 2.0 | 1.6 ± 0.2 | 2.2 | no significant effect | 3.6 ± 0.2 | 4.1 ± 0.3 | Activity of DNMT enzymes ([6]; HCT-116, 30 µM): no significant effect |
| CCCCCCCC(=O)[O][Pt]([NH2])([NH2])([Cl])([Cl])[O]C(=O)CCCCCCC [Pt(IV)diOA, cis, cis, trans-[Pt(IV)(NH3)2Cl2(OA)2]] | 0.041 ± 0.001 | 0.7 | 0.029 ± 0.002 | 0.14 ± 0.02 | 0.017 ± 0.003 | 0.038 ± 0.006 | 0.022 ± 0.001 | 43.3 ± 5.3 | 13.0 | 123.1 ± 5.1 | 11.9 | enhanced activity of DNMT enzymes | 59 ± 7 | 189 ± 9 | Increase of cytotoxicity vs. cisplatin ([1]; A2780, Fig. 2A): 68 x; Increase of cytotoxicity vs. Pt(IV)diAc ([1]; A2780, Fig. 2C): 129 x; Increase of cytotoxicity vs. cisplatin ([4]; HCT-116, Fig. 2B): 347 x; Increase of cytotoxicity vs. Pt(IV)diAc ([4]; HCT-116, Fig. 2D): 2076 x; Increase of DNA platination vs. cisplatin (DNA from A2780 cells; A2780, Fig. 2A): 28 x; Increase of DNA platination vs. Pt(IV)diAc (DNA from A2780 cells; A2780, Fig. 2C): 39 x; Increase of DNA platination vs. cisplatin (DNA from HCT-116 cells; HCT-116, Fig. 2B): 77 x; Increase of DNA platination vs. Pt(IV)diAc (DNA from HCT-116 cells; HCT-116, Fig. 2D): 95 x; Activity of DNMT enzymes ([6]; HCT-116, 0.5 µM): enhanced activity of DNMT enzymes |
